This note sets out measurements from ChEMBL document CHEMBL1137519, “Elucidation of the RNA target of linezolid by using a linezolid-neomycin B heteroconjugate and genomic SELEX” (Bioorg Med Chem, 2007).

Assay [1] in a line: Binding affinity to Escherichia coli K12 stem-loop region L2-10 RNA aptamers using luminescence spectrometer by anisotropy technique.
The nature of assay [2]: Binding affinity to Escherichia coli K12 stem-loop region L2-11 RNA aptamers using luminescence spectrometer by anisotropy technique.
A short description of assay [3]: Binding affinity to Escherichia coli K12 stem-loop region L2-12 RNA aptamers using luminescence spectrometer by anisotropy technique.
Assay [4] is described as follows: Binding affinity to Escherichia coli K12 stem-loop region L2-12 RNA aptamers using BIAcore 3000 instrument.
The nature of assay [5]: Binding affinity to Escherichia coli K12 stem-loop region L2-11 RNA aptamers using BIAcore 3000 instrument.

Consider `CC(=O)NC[C@@H]1CN(c2ccc(N3CCN(C(=O)CSCCCCCCSC[C@@H]4O[C@H](O[C@@H]5[C@@H](O)[C@H](N)C[C@H](N)[C@H]5O[C@H]5O[C@H](CN)[C@@H](O)[C@H](O)[C@H]5N)[C@@H](O)[C@H]4O[C@@H]4O[C@H](CN)[C@H](O)[C@@H](O)[C@@H]4N)CC3)c(F)c2)C(=O)O1`, for which the Kd in assay [1] amounted to 90 nM; in assay [2] it was 260 nM; in assay [3], 66 nM; in assay [4] it was 670 nM; in assay [5] it was 960 nM.

For the compound `NC[C@@H]1O[C@H](O[C@H]2[C@@H](O)[C@H](O[C@@H]3[C@@H](O)[C@H](N)C[C@H](N)[C@H]3O[C@H]3O[C@H](CN)[C@@H](O)[C@H](O)[C@H]3N)O[C@@H]2CO)[C@H](N)[C@@H](O)[C@@H]1O` (stereo in doubt) [FRAMYCETIN], the equilibrium dissociation constant (Kd) amounted to 308 nM in assay [1]; 313 nM in assay [2]; 320 nM in assay [3]; 2300 nM in assay [4]; 6300 nM in assay [5].
